For test [1], the system named is U937 cells adhered to HUVEC stimulated by IL-1β. Nature of the test: Inhibitory effect on cell adhesion, stimulation by IL-1β. Type of test: cell-based. To be noted: Homo sapiens, compound at 1 μM, read-out: Inhibitory activity against cell adhesion, Percent inhibition (%), Stimulation by IL-1β. The method, then:
(§1) This test was conducted by reference to the method of Ross et al. (J. Biol. Chem., 267, 8537–8543(1992). More specifically, after human umbilical venous endothelial cells (HUVEC) were cultured on a 48-well plate to confluent growth, IL-1β or TNFα was added thereto. After culturing for 5 hours, U937, which is a human monocytic/histocytic cell fluorescence-labeled with PKH2(product of Dainippon Pharmaceutical Co., Ltd.), was added in a proportion of 1×10^6 cells per well. After the plate was left at rest at room temperature for 1 hour, unadhered U937 was washed out and lysed in 1% Triton X-100 to measure a remaining fluorescence intensity (excitation wavelength: 480 nm; measuring wavelength: 530 nm). HUVEC and U937 were cultured in EGM-2 (product of Sanko Junyaku K. K.) and 10% FCS-containing RPMI1640, respectively. Each test agent was added to HUVEC upon the addition of IL-1β or TNFα and to U937 24 hours prior to the cell adhesion test. The inhibitory activity was calculated out according to the equation [100−(C−B)/(A−B)×100(%)], wherein A is the number of U937 cells adhered to HUVEC stimulated by IL-1β or TNFα when no test agent was added, B is the number of U937 cells adhered to HUVEC not stimulated by IL-1β or TNFα when no test agent was added, and C is the number of U937 cells adhered to HUVEC stimulated by IL-1β or TNFα when the test agent was added. As control compounds, Test Compound 1 described in Japanese Patent Application Laid-Open No. 9–143075 and dilazep described in Japanese Patent Application Laid-Open No. 11–92382 were simultaneously evaluated.

In test [2] the test system is U937 cells adhered to HUVEC stimulated by TNFα. Put plainly: Inhibitory effect on cell adhesion, stimulation by TNFα. Type of test: cell-based. To be noted: Homo sapiens, compound at 1 μM, read-out: Inhibitory activity against cell adhesion, Percent inhibition (%), Stimulation by TNFα. The procedure:
as §1

Broadly, the inhibition is the relative decrease from the control value, in per cent.

Regarding `COc1cc(C(=O)OCCCN2CCCN(CCCOC(=O)c3cc(OC)c(OC)c(OC)c3)CC2)cc(OC)c1OC` [Dilazep, dilazep, reference compound], the inhibition at 1 µM in test [1] is 0%; in test [2] it was 12%.
In the same order, the values of `COc1cc2cc(CCN3CCCN(CCc4ccc5c(OC)c(OC)c(OC)cc5c4)CC3)ccc2c(OC)c1OC` [Example 6, N,N′-bis[2-(5,6,7-trimethoxynaphthalen-2-yl)ethyl]homopiperazine] are 57% and 69%.
For the compound `COc1cc2nc(CN3CCN(Cc4nc5cc(OC)c(OC)c(OC)c5s4)CC3)sc2c(OC)c1OC` [Example 32, N,N′-bis[(5,6,7-trimethoxybenzothiazol-2-yl)methyl]piperazine], the inhibition at 1 µM in test [1] came out at 54%; in test [2] it was 52%.
Consider `COc1cc2nc(CN3CCCN(Cc4nc5cc(OC)c(OC)c(OC)c5s4)CC3)sc2c(OC)c1OC` [Example 33, N,N′-bis[(5,6,7-trimethoxybenzothiazol-2-yl)methyl]homopiperazine], for which the inhibition at 1 µM in test [1] amounted to 64%; in test [2], 79%.
For `COc1cc2sc(CN3CCCN(Cc4cc5c(OC)c(OC)c(OC)cc5s4)CC3)cc2c(OC)c1OC` [Example 41, N,N′-bis[(4,5,6-trimethoxybenzothiophen-2-yl)methyl]homopiperazine], in that order: 52% and 27%.
